The subject of data set [1] is acute liver disease caused by CCl4 (Wister-strain rat). The data set is described as follows: Preventive action on deviation of GOT value and GPT value in vivo using model of acute liver disease caused by CCl4. The procedure:
CCl4 in olive oil (concentration: 50%) was orally administered to a Wister-strain rat (body weight: 170-180 g) fasted for 24 hrs., at a dose of 1 ml/kg, to cause acute liver disease. […] For control group, 1.0% methylcellulose (MC) was administered in place of the piperazine derivative. For normal group, a simple olive oil was administered in place of the CCl4 -containing olive oil. For the administration, the piperazine derivative was employed in the form of a dispersion in aqueous MC solution (concentration: 1.0%). At 24 hours after the administration of CCl4, the rat was abdominally sectioned under ether anesthesia. From the abrominal large vein, a blood was collected. The collected blood was subjected to centrifugal separation at 3,000 r.p.m. for 10 min to obtain its plasma. […] The results are set forth in Table 4 in terms of a ratio (%) of suppression (prevention) of GOT or GPT. In Table 4, "***" means 90-100%, "**" means 60-90%, and "*" means 30-60%. The ratio of suppression is calculated according to the following equation. [formula]

The test system of data set [2] is lipid peroxidation in rat hepatocyte. The experiment in a line: Inhibitory action on lipid peroxidation (rat hepatocyte, TBA color formation, absorbance at 530 nm). To be noted: 37° C., 1 hour; for Inhibition ratio (at Final Concentration of Tested Compound) 10^-4 M: final concentration 10^-4 M, 100 µM; for Inhibition ratio (at Final Concentration of Tested Compound) 10^-5 M: final concentration 10^-5 M, 10 µM. The class given is biochemical. How it is done:
A hepatocyte was isolated from rat according to the method of Ui et al (Hiroshi Oka and Tadao Ui: "Isolated Cells--Experimental and Application",page 91). The determination of lipid peroxidation was performed using a died hepatocyte which had been frozen at -85° C. and stored at the temperature and which was melted when the experimental was done. […] The centrifugal tube was shaken at 37° C. for 1 hour for performing a reaction, and then placed into an ice-water bath to terminate the reaction. […] The centrifugal tube was taken out of the ice-water bath and placed in a water bath (kept at 95°-98° C.). The content of the tube was heated in the bath for 1 hour for developing color-formation. After the heating was complete, the content of the tube was cooled and subjected to centrifugal separation. The inhibitory action on lipid peroxidation of the sample was determined by measuring absorbance at 530 nm. The determined inhibitory action is expressed inhibition ratio by percent (%) calculated by the following equation: [formula] In Table 3, the number of the tested compound corresponds to the identical number set forth in Tables 1 and 2 for identifying the compounds of the invention.

A short description of data set [3]: Toxicity by oral administration. The class given is in vivo. The note with it: even at 1,600 mg/kg by oral administration. How it is done:
Further, it has been experimentally confirmed that all of piperazine derivatives of the invention tested for toxicity (Compound Nos. 4, 5, 22, 23, 32, 33, 38, 75 and 113 indicated in Tables 1 and 2) cause no death even at 1,600 mg/kg by oral administration.

The mark [4] stands for this setting: Rattus norvegicus, po, 24 h, read-out: ratio (%) of suppression (prevention) of GOT.
Setting [5] is: Rattus norvegicus, po, 24 h, read-out: ratio (%) of suppression (prevention) of GPT.
Where [6] appears, read: rat, 30 mg/kg, 3 hour before oral CCl4, plasma GOT at 24 hours after CCl4, read-out: ratio (%) of suppression (prevention) of GOT.
Setting [7] is: rat, 30 mg/kg, 3 hour before oral CCl4, plasma GPT at 24 hours after CCl4, read-out: ratio (%) of suppression (prevention) of GPT.

Read-outs that look alike come from different tables or passages of the source.

As for `CSC(=S)N1CCN(Cc2ccccc2O)CC1` [Compound 4, Methyl 4-(2-hydroxybenzyl)-1-piperazinecarbodithioate], the inhibition in vivo at 30 mg/kg in data set [1] (setting [4]) lay in the range of 90 to 100%. Moreover, the inhibition in vivo at 30 mg/kg in data set [1] (setting [5]) was 90 to 100%. In data set [2], the “Inhibition ratio (at Final Concentration of Tested Compound) 10^-4 M” value worked out at 100% and the “Inhibition ratio (at Final Concentration of Tested Compound) 10^-5 M” value came to 96.6%. In addition, the “death in toxicity test” value in data set [3] is on record as “no death”.
`COc1ccccc1CN1CCN(C(=S)SC)CC1` [Compound 5, Methyl 4-(2-methoxybenzyl)-1-piperazinecarbodithioate]: the inhibition in vivo at 30 mg/kg in data set [1] (setting [4]) and in data set [1] (setting [5]) was 90 to 100% in each case. In addition, in data set [3], the “death in toxicity test” value is “no death”.
Consider `CSC(=S)N1CCN(Cc2ccccc2N)CC1` [Compound 11, Methyl 4-(2-aminobenzyl)-1-piperazinecarbodithioate], for which the inhibition in vivo at 30 mg/kg in data set [1] (setting [6]) was 90 to 100%. Besides, in data set [1] (setting [7]), the inhibition in vivo at 30 mg/kg was 90 to 100%. Besides, in data set [2], the “Inhibition ratio (at Final Concentration of Tested Compound) 10^-4 M” value is given as 98.6% and the “Inhibition ratio (at Final Concentration of Tested Compound) 10^-5 M” value is reported as 95.5%.
With `CSC(=S)N1CCN(Cc2ccccc2N(C)C)CC1` [Compound 13, Methyl 4-(2-dimethylaminobenzyl)-1-piperazinecarbodithioate], the inhibition in vivo at 30 mg/kg in data set [1] (setting [6]) and in data set [1] (setting [7]) was 30 to 60% throughout. Moreover, the “Inhibition ratio (at Final Concentration of Tested Compound) 10^-4 M” value in data set [2] is 98.9%. For the same compound, the “Inhibition ratio (at Final Concentration of Tested Compound) 10^-5 M” value in data set [2] stood at 95.4%.
With `CSC(=S)N1CCN(Cc2cc(O)ccc2O)CC1.Cl` [Compound 16, Methyl 4-(2,5-dihydroxybenzyl)-1-piperazinecarbodithioate hydrochloride], the inhibition in vivo at 30 mg/kg in data set [1] (setting [6]) was in the range of 90 to 100%. In data set [1] (setting [7]), the inhibition in vivo at 30 mg/kg lay in the range of 90 to 100%. Besides, in data set [2], the “Inhibition ratio (at Final Concentration of Tested Compound) 10^-4 M” value is 73.4% and the “Inhibition ratio (at Final Concentration of Tested Compound) 10^-5 M” value came to 69.4%.
For the compound `COc1cccc(CN2CCN(C(=S)SC)CC2)c1OC` [Compound 22, Methyl 4-(2,3-dimethoxybenzyl)-1-piperazinecarbodithioate], the inhibition in vivo at 30 mg/kg in data set [1] (setting [4]) was in the range of 90 to 100%. Besides, the inhibition in vivo at 30 mg/kg in data set [1] (setting [5]) lay in the range of 60 to 90%. Further, in data set [2], the “Inhibition ratio (at Final Concentration of Tested Compound) 10^-4 M” value came out at 100% and the “Inhibition ratio (at Final Concentration of Tested Compound) 10^-5 M” value was determined as 92.0%. The “death in toxicity test” value in data set [3] was “no death”.
The like results for `COc1ccc(OC)c(CN2CCN(C(=S)SC)CC2)c1` [Compound 23, Methyl 4-(2,5-dimethoxybenzyl)-1-piperazinecarbodithioate] were, in that order, 90 to 100%, 90 to 100%, 100%, 60.6% and “no death”.
In the same order, the values of `CSC(=S)N1CCN(Cc2ccc(O)c(O)c2O)CC1` [Compound 32, Methyl 4-(2,3,4-trihydroxybenzyl)-1-piperazinecarbodithioate] are 60 to 90%, 60 to 90%, 87.8%, 87.4% and “no death”.
Turning to `COc1ccc(CN2CCN(C(=S)SC)CC2)c(OC)c1OC` [Compound 33, Methyl 4-(2,3,4-trimethoxybenzyl)-1-piperazinecarbodithioate], the inhibition in vivo at 30 mg/kg was in the range of 90 to 100% in data set [1] (setting [4]) and 60 to 90% in data set [1] (setting [5]). Further, the “death in toxicity test” value in data set [3] is given as “no death”.
In the same order, the values of `COc1cc(C=O)cc(CN2CCN(C(=S)SC)CC2)c1O` [Compound 38, Methyl 4-(5-formyl-2-hydroxy-3-methoxybenzyl)-1-piperazinecarbodithioate] are 60 to 90%, 60 to 90% and “no death”.
Turning to `CCCOC(=O)c1cc(O)c(O)c(O)c1CN1CCN(C(=S)SC)CC1` [Compound 44, Methyl 4-(6-propyloxycarbonyl-2,3,4-trihydroxybenzyl)-1-piperazinecarbodithioate], the inhibition in vivo at 30 mg/kg was in the range of 90 to 100% in data set [1] (setting [6]) and 60 to 90% in data set [1] (setting [7]). Also, the “Inhibition ratio (at Final Concentration of Tested Compound) 10^-4 M” value in data set [2] stood at 96.6%. In data set [2], the “Inhibition ratio (at Final Concentration of Tested Compound) 10^-5 M” value is on record as 96.0%.
The like results for `COc1c(O)c(C)c(CN2CCN(C(=S)SC)CC2)c(O)c1OC` [Compound 47, Methyl 4-(2,5-dihydroxy-3,4-dimethoxy-6-methylbenzyl)-1-piperazinecarbodithioate] were, in that order, 90 to 100%, 90 to 100%, 100% and 56.1%.
Take `COc1c(OC(C)=O)c(C)c(CN2CCN(C(=S)SC)CC2)c(OC(C)=O)c1OC` [Compound 48, Methyl 4-(2,5-diacetoxy-3,4-dimethoxy-6-methylbenzyl)-1-piperazinecarbodithioate]: the inhibition in vivo at 30 mg/kg in data set [1] (setting [6]) lay in the range of 60 to 90%. Besides, in data set [1] (setting [7]), the inhibition in vivo at 30 mg/kg is 60 to 90%. For the same compound, in data set [2], the “Inhibition ratio (at Final Concentration of Tested Compound) 10^-4 M” value came to 96.2% and the “Inhibition ratio (at Final Concentration of Tested Compound) 10^-5 M” value stood at 97.5%.
Consider `CSC(=S)N1CCN(CC(O)c2ccc(O)c(O)c2)CC1` (stereo not drawn) [Compound 73, Methyl 4-{2-(3,4-dihydroxyphenyl)-2-hydroxy}ethyl-1-piperazinecarbodithioate], for which the inhibition in vivo at 30 mg/kg in data set [1] (setting [6]) is 60 to 90%. Also, in data set [1] (setting [7]), the inhibition in vivo at 30 mg/kg was in the range of 60 to 90%. In addition, in data set [2], the “Inhibition ratio (at Final Concentration of Tested Compound) 10^-4 M” value was found to be 88.4% and the “Inhibition ratio (at Final Concentration of Tested Compound) 10^-5 M” value turned out to be 44.5%.
Regarding `COc1ccc(CC(=O)N2CCN(C(=S)SC)CC2)c(OC)c1OC` [Compound 75, Methyl 4-(2,3,4-trimethoxyphenylacetyl)-1-piperazinecarbodithioate], the inhibition in vivo at 30 mg/kg in data set [1] (setting [4]) and in data set [1] (setting [5]) was 60 to 90% in each case. For the same compound, the “death in toxicity test” value in data set [3] was “no death”.
Regarding `CSC(=S)N1CCN(CC2=C(C)C(=O)C(C)=C(C)C2=O)CC1` [Compound 113, Methyl 4-(3,5,6-trimethyl-1,4-benzoquinonylmethyl)-1-piperazinecarbodithioate], the inhibition in vivo at 30 mg/kg in data set [1] (setting [4]) lay within 90 to 100%; in data set [1] (setting [5]), 60 to 90%. Besides, the “death in toxicity test” value in data set [3] is “no death”.
